Results: patent EP3789378A1, “PIPERIDINES OR PIPERIDONES SUBSTITUTED WITH UREA AND HETEROARYL” (Grünenthal GmbH, priority 2019, dated 2021)

biological target: T1, h FPR2 (Homo sapiens, UniProt P25090); test: Agonistic activity in hFPR2-Aq-CHO cells (FLIPR Calcium 5 fluorescence assay); format: cell-based; details: 11 point half log dilution, final assay concentration from 10µM
T1 construct: expressed in transfected cells
T1 sequence (P25090 1-351): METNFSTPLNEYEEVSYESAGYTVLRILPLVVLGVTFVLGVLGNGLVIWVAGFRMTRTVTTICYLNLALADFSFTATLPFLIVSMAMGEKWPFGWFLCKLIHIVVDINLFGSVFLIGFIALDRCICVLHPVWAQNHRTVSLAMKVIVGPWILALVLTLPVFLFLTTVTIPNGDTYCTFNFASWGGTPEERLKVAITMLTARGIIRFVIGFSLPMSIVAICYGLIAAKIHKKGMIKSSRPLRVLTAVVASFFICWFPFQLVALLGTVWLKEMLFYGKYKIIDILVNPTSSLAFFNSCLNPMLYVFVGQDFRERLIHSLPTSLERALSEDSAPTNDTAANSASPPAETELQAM
Experimental: After washing, the cells are plated at 10,000 cells per well in 40 µL complete medium in a 384-well sterile clear bottom black plate and incubated in a 5% CO2 incubator at 37°C for 18 hours. Plating media is removed from each well by decanting and gentle tapping before 30 µL of 0.5X Calcium 5 dye solution (0.5X FLIPR Calcium 5 dye (Molecular devices, R8186)); HBSS; 20mM HEPES; 2.5mM Probenecid; 0.025% Pluronic F-127; pH adjusted to 7.4) is added to each well and the plate is then incubated at 37°C for 30 minutes. For the assay the plate is equilibrated at room temperature for 10 minutes before placing it in the FLIPR. Compounds are dissolved in DMSO and serially diluted over an 11 point half log (3.16 fold) dilution (2 mM to 20 nM). Compounds are then diluted 1:50 in assay buffer (HBSS; 20mM HEPES; 2.5mM Probenecid; 0.05% gelatin; 0.1% BSA; pH adjusted to 7.4) just before performing the assay. Compounds are finally added to the respective wells of the cell plate (final assay concentration 10 µM to 100 pM) using the FLIPR (e.g. FLIPR-Tetra, Molecular Devices) and fluorescence readings are captured for 5 minutes. The increase in fluorescence from the basal reading in the presence of the compounds is compared with that of the control wells (wells having no compound) to calculate the activity of the compounds. The EC50 values of the compounds can be determined using e.g. Graph pad Prism software.
Assay method for measuring agonistic activity of compounds in hFPR2-Aq-CHO cell
Cryo-vial containing 6x10^6 cells (hFPR1-Gα15-CHO or hFPR2-Aq-CHO) was thawed in a 37°C water bath. Cells were suspended in 10ml of respective complete growth media (F12(1X)HAM media (Gibco; Cat#11765); 10% HI-FBS (Gibco; Cat#10082); 0.4 mg/ml Geneticin (Gibco; Cat#10131); 0.25 mg/ml Zeocin (Invitrogen; Cat#R25001)) in a 15ml centrifuge tube. The cell viability was checked with the help of Trypan Blue dye. Upon washing the cells, those were plated in a 384-well sterile clear bottom black plate (Greiner Bioone Cat# 781091) so that, each well contained 10,000 cells in 40µl complete growth media. The plate was incubated in a 5% CO2 incubator at 37°C for 18 hours. Before assay on the next day, the cell plating media was removed from each well of the plate by decanting and gentle tapping. 30µl of 0.5X Calcium 5 dye solution (0.5X FLIPR Calcium 5 dye (Molecular devices Cat# R8186); HBSS (Invitrogen; Cat#14025); 20mM HEPES (Sigma; Cat#H0887); 2.5mM Probenecid (Sigma; Cat#P8761); 0.025% Pluronic F-127 (Sigma; Cat#P2443); pH adjusted to 7.4) was added to each well. The plate was then incubated at 37°C for 30 minutes. Following which the plate was equilibrated at room temperature for 10 minutes before placing it in a 384 well FLIPR for assay. Compounds were dissolved in DMSO and serially diluted following 11 point half log (3.16 fold) dilution with a starting concentration of 2mM (Final assay concentration 10µM). Aliquots of above mentioned each dilution was mixed with assay buffer (HBSS (Invitrogen; Cat#14025); 20mM HEPES (Sigma; Cat#H0887); 2.5mM Probenecid (Sigma; Cat#P8761); 0.05% gelatin (Sigma; Cat#G1890); 0.1% BSA (Sigma; Cat#A3059); pH adjusted to 7.4) just before performing the assay. Compounds were added to the respective wells of the assay ready cell plate with the help of the FLIPR (FLIPR Tetra) and fluorescence readings were captured for 5 minutes to measure any agonistic response of the compounds. The increase in fluorescence readings from the basal reading in presence of the compounds were compared with that of the control wells (wells having no compound) to calculate the agonistic activity of the compounds. The EC50 values of the compounds were determined using the Graph pad Prism software.

SMILES | EC50 [nM]
COc1ccc([C@@H]2CN(c3ccc(F)cc3)C(=O)C[C@H]2NC(=O)Nc2ccc(Cl)cc2)cn1 (relative stereo) [Ex-5, trans-1-(4-chlorophenyl)-3-[-1-(4-fluorophenyl)-5-(6-methoxypyridin-3-yl)-2-oxopiperidin-4-yl]urea] | 0.16
COc1ccc([C@@H]2CN(Cc3cc(C(F)(F)F)on3)CC[C@H]2NC(=O)Nc2ccc(Cl)cc2)nc1 (single isomer, unassigned) [Ex-38, trans-1-(4-chlorophenyl)-3-[3-(5-methoxypyridin-2-yl)-1-{[5-(trifluoromethyl)-1,2-oxazol-3-yl]methyl}piperidin-4-yl]urea] | 54
COc1ccc([C@@H]2CN(c3cnccn3)CC[C@H]2NC(=O)Nc2ccc(Cl)cc2)nc1 (relative stereo) [Ex-226, trans-1-(4-chloro-phenyl)-3-(5-methoxy-1'-pyrazin-2-yl-1',2',3',4',5',6'-hexahydro-[2,3']bipyridinyl-4'-yl)-urea] | 0.9
O=C(Nc1ccc(Cl)cc1)N[C@@H]1CCN(C(=O)C2CCC(O)CC2)C[C@H]1c1ccc(Cl)s1 (relative stereo) [Ex-132, trans-1-(4-Chlorophenyl)-3-[3-(5-chloro-thiophen-2-yl)-1-(4-hydroxy-cyclohexanecarbonyl)-piperidin-4-yl]-urea] | 39
Cc1cc(NC(=O)N[C@@H]2CCN(c3cncc(C)n3)C[C@H]2c2ccc(Cl)cn2)sn1 (relative stereo) [Ex-34, trans-1-[5-chloro-1'-(6-methyl-pyrazin-2-yl)-1',2',3',4',5',6'-hexahydro-[2,3']bipyridinyl-4'-yl]-3-(3-methyl-isothiazol-5-yl)-urea] | 4
COc1ccc([C@@H]2CN(C(=O)CO)CC[C@H]2NC(=O)Nc2cc(C)ns2)nc1 (relative stereo) [Ex-123, trans-1-[1-(2-Hydroxy-acetyl)-3-(5-methoxy-pyridin-2-yl)-piperidin-4-yl]-3-(3-methyl-isothiazol-5-yl)-urea] | 18
COc1ccc([C@@H]2CN(CCS(C)(=O)=O)CC[C@H]2NC(=O)Nc2cc(C)ns2)nc1 (relative stereo) [Ex-148, trans-1-[3-(5-Methoxy-pyridin-2-yl)-1-(2-methylsulfonyl-ethyl)-piperidin-4-yl]-3-(3-methyl-isothiazol-5-yl)-urea] | 6
COc1ccc([C@@H]2CNCC[C@H]2NC(=O)Nc2ccc(Cl)cc2)nc1 (single isomer, unassigned) [Ex-168, trans-1-(4-Chlorophenyl)-3-[3-(5-methoxy-pyridin-2-yl)-piperidin-4-yl]-urea] | 0.9
COc1ccc([C@@H]2CN(CC3(O)CC3)CC[C@H]2NC(=O)Nc2ccc(Cl)cc2)nc1 (relative stereo) [Ex-163, trans-1-(4-Chlorophenyl)-3-[1-[(1-hydroxy-cyclopropyl)-methyl]-3-(5-methoxy-pyridin-2-yl)-piperidin-4-yl]-urea] | 0.8
COc1ccc([C@@H]2CN(C)CC[C@H]2NC(=O)Nc2ccc(Cl)cc2)nc1 (relative stereo) [Ex-126, trans-1-(4-Chlorophenyl)-3-[3-(5-methoxy-pyridin-2-yl)-1-methyl-piperidin-4-yl]-urea] | 1.2
COc1ccc([C@@H]2CN(Cc3cnc(C)nc3)CC[C@H]2NC(=O)Nc2ccc(Cl)cc2)nc1 (relative stereo) [Ex-61, trans-1-(4-chlorophenyl)-3-[3-(5-methoxy-2-pyridyl)-1-[(2-methylpyrimidin-5-yl)methyl]-4-piperidyl]urea] | 0.6
COc1cnc([C@@H]2CN(CCCN(C)C)CC[C@H]2NC(=O)Nc2ccc(Cl)cc2)c(F)c1 (relative stereo) [Ex-212, trans-1-(4-chloro-phenyl)-3-[1'-(3-dimethylamino-propyl)-3-fluoro-5-methoxy-1',2',3',4',5',6'-hexahydro-[2,3']bipyridinyl-4'-yl]-urea] | 0.3
Cc1cc(NC(=O)N[C@@H]2CCN(c3cc(C(F)(F)F)ncn3)C[C@H]2c2ccc(Cl)cn2)sn1 (relative stereo) [Ex-27, trans-1-[5-chloro-1'-(6-trifluoromethyl-pyrimidin-4-yl)-1',2',3',4',5',6'-hexahydro-[2,3']bipyridinyl-4'-yl]-3-(3-methyl-isothiazol-5-yl)-urea] | 6
COc1ccc([C@@H]2CN(C(=O)CN(C)C)CC[C@H]2NC(=O)Nc2cc(C)ns2)nc1 (relative stereo) [Ex-118, trans-1-[1-(2-Dimethylamino-acetyl)-3-(5-methoxy-pyridin-2-yl)-piperidin-4-yl]-3-(3-methyl-isothiazol-5-yl)-urea] | 5

The next lines start with the values.

EC50 [nM] | SMILES
7 | Cc1cc(NC(=O)N[C@@H]2CCN(c3ccnc(C)n3)C[C@H]2c2ccc(Cl)cn2)sn1 (relative stereo) [Ex-21, trans-1-[5-chloro-1'-(2-methyl-pyrimidin-4-yl)-1',2',3',4',5',6'-hexahydro-[2,3']bipyridinyl-4'-yl]-3-(3-methyl-isothiazol-5-yl)-urea]
85 | COc1ccc([C@@H]2CN(CC(F)F)CC[C@H]2NC(=O)Nc2ccc(Cl)cc2)nc1 (single isomer, unassigned) [Ex-36, trans-1-(4-chlorophenyl)-3-[1-(2,2-difluoroethyl)-3-(5-methoxypyridin-2-yl)piperidin-4-yl]urea]
2 | COc1ccc([C@H]2CN(CC(=O)N(C)C)CC[C@@H]2NC(=O)Nc2ccc(Cl)cc2)nc1 [Ex-216]
1 | Cc1ccc(CN2CC[C@@H](NC(=O)Nc3ccc(Cl)cc3)[C@H](c3ccc(Cl)s3)C2)cn1 (relative stereo) [Ex-87, trans-1-(4-chlorophenyl)-3-[3-(5-chlorothiophen-2-yl)-1-[(6-methylpyridin-3-yl)methyl]piperidin-4-yl]urea]
0.4 | COc1ccc([C@@H]2CN(C(=O)c3cnccc3C(F)(F)F)CC[C@H]2NC(=O)Nc2ccc(Cl)cc2)nc1 (single isomer, unassigned) [Ex-99, trans-1-(4-chlorophenyl)-3-[3-(5-methoxypyridin-2-yl)-1-{[4-(trifluoromethyl)pyridin-3-yl]carbonyl}piperidin-4-yl]urea]

same assay, conditions: agonistic response at 0.1µM

activation at 0.1 µM [%] | SMILES
8 | COc1ccc([C@@H]2CN(C(=O)CN(C)C)CC[C@H]2NC(=O)Nc2ccc(Cl)cc2)nc1 (relative stereo) [Ex-190, trans-1-(4-chlorophenyl)-3-[1-[2-(dimethylamino)acetyl]-3-(5-methoxypyridin-2-yl)piperidin-4-yl]urea]
44 | COc1ccc([C@@H]2CN(CC3CC3)CC[C@H]2NC(=O)Nc2ccc(Cl)cc2)nc1 (relative stereo) [Ex-173, trans-1-(4-Chlorophenyl)-3-[1-(cyclopropyl-methyl)-3-(5-methoxy-pyridin-2-yl)-piperidin-4-yl]-urea]
